{"source": "patent US5241087A", "about": "(priority 1992, dated 1993)", "data": [{"test_system": "not listed separately", "experiment": "Permeability through supported-gas membrane (microporous polypropylene hollow fibers, system of FIG. 1)", "details": "supported-gas membrane system of FIG. 1", "values": [{"smiles": "O=Cc1ccccc1", "note": "[benzaldehyde]", "average permeability relative to the permeability of benzaldehyde cyanohydrin": "roughly 700 times"}]}, {"test_system": "(R)-oxynitrilase", "experiment": "Relative rate of dehydrocyanation of cyanohydrins by soluble (R)-oxynitrilase (initial rate studies, absorbance)", "format": "biochemical", "details": "(R)-oxynitrilase with 0.21 mM solution of cyanohydrin; relative to benzaldehyde cyanohydrin = 1.0", "procedure": "The following standardized assay was utilized to measure the activity of oxynitrilase set forth in the Examples which follow. A solution of enzyme was prepared in 0.1M (pH 5.5) citrate buffer. A 3-ml sample of enzyme solution was combined with 30 microliters of 0.21M benzaldehyde cyanohydrin and the rate of increase in absorbance at 250 nm recorded. Then, the same procedure was followed with a 3-ml sample of 0.1M (pH 5.5) citrate buffer to obtain the background, non-enzymatic, reaction. The activity in units/ml was calculated by subtracting the slope of the non-enzymatic reaction from the slope of the enzymatic reaction and converting the absorbance change with time to concentration change with time using a molar extinction coefficient of 13,200 M^-1 cm^-1.\nRelative rates of dehydrocyanation of different cyanohydrins subjected to the action of the soluble catalyst (R)-oxynitrilase were determined from initial rate studies. A solution of (R)-oxynitrilase was combined with a 0.21 mM solution of cyanohydrin and the rate of increase of absorbance at the wavelength corresponding to the absorption maxima was monitored as described above in connection with the measurement of catalyst activity. The measured activity was calculated using the appropriate extinction coefficient for the corresponding aldehyde.", "values": [{"smiles": "Cc1ccc(C(O)C#N)o1", "note": "(stereo not drawn) [5-Methylfurfural cyanohydrin]", "Relative Rate (dehydrocyanation)": 2.8}, {"smiles": "N#CC(O)c1ccccc1", "note": "(stereo not drawn) [Benzaldehyde cyanohydrin]", "Relative Rate (dehydrocyanation)": 1.0}, {"smiles": "N#CC(O)C=Cc1ccccc1", "note": "(stereo not drawn) [Cinnamaldehyde cyanohydrin]", "Relative Rate (dehydrocyanation)": 0.05}, {"smiles": "CC=CC(O)C#N", "note": "(stereo not drawn) [Crotonaldehyde cyanohydrin]", "Relative Rate (dehydrocyanation)": 0.90}, {"smiles": "N#CC(O)c1ccco1", "note": "(stereo not drawn) [Furfural cyanohydrin]", "Relative Rate (dehydrocyanation)": 2.5}, {"smiles": "N#CC(O)c1ccc2c(c1)OCO2", "note": "(stereo not drawn) [Piperonal cyanohydrin]", "Relative Rate (dehydrocyanation)": 2.1}, {"smiles": "COc1cccc(C(O)C#N)c1", "note": "(stereo not drawn) [m-Anisaldehyde cyanohydrin]", "Relative Rate (dehydrocyanation)": 0.19}, {"smiles": "COc1ccc(C(O)C#N)cc1", "note": "(stereo not drawn) [p-Anisaldehyde cyanohydrin]", "Relative Rate (dehydrocyanation)": 0.17}, {"smiles": "CCc1ccc(C(O)C#N)cc1", "note": "(stereo not drawn) [p-Ethylbenzaldehyde cyanohydrin]", "Relative Rate (dehydrocyanation)": 0.13}, {"smiles": "Cc1ccc(C(O)C#N)cc1", "note": "(stereo not drawn) [p-Tolualdehyde cyanohydrin]", "Relative Rate (dehydrocyanation)": 0.45}]}, {"test_system": "oxynitrilase enzyme from sorghum", "experiment": "not given", "details": "6 Phytochemistry 473 (1967); cited from earlier work", "values": [{"smiles": "N#CC(O)c1ccc(O)cc1", "note": "(stereo not drawn) [p-hydroxybenzaldehyde cyanohydrin]", "specificity of sorghum oxynitrilase for dehydrocyanation of substrate": "appears to be specific"}]}]}
